According to patent publication US9187472B2 (AbbVie Inc., priority 2012, dated 2015):

Tests used:
[1] = target: NAMPT (human, recombinant, C-terminally His-tagged) (Homo sapiens, UniProt P43490); experiment: Time-Resolved Fluorescence Resonance Energy Transfer (TR-FRET) Binding Assay of NAMPT; settings: without substrates; 6.8 nM NAMPT, 200 nM probe, 3 hours equilibration
Outline: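 Probe displacement by compound was measured with 6.8 nM NAMPT, 200 nM Oregon Green 488-conjugated nicotinamide-competitive inhibitor probe and 1 nM Tb-anti-His antibody in 50 mM HEPES pH 7.5, 100 mM NaCl, 10 mM MgCl2, 1 mM DTT, 1% glycerol, 2% DMSO (final). After 3 h at room temperature, TR-FRET was read; IC50 from four-parameter logistic fit.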

NAMPT = NAMPT (Homo sapiens, UniProt P43490); experiment: TR-FRET Binding Assay of NAMPT with PRPP; settings: with 200 μM PRPP and 2.5 mM ATP; 2 nM NAMPT, 2 nM probe, 16 hours equilibration
Sequence of NAMPT (P43490 whole entry): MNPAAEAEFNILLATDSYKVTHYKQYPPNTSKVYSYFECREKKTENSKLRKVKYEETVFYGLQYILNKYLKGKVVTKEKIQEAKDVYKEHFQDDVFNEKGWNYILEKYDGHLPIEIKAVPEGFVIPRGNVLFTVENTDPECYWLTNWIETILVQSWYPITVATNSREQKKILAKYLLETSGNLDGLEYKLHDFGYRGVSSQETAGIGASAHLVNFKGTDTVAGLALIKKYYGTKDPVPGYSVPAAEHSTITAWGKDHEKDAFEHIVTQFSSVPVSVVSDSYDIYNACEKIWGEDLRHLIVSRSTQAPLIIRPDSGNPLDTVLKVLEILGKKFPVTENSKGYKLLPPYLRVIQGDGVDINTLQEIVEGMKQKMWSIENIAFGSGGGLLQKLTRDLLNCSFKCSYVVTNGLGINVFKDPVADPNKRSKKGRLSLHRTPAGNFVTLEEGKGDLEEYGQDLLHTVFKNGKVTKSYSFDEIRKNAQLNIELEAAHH
Outline: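 Run in the presence of substrates (200 μM PRPP, 2.5 mM ATP) with final 2 nM NAMPT, 2 nM probe, 1 nM Tb-anti-His antibody and 2% DMSO. Mixtures equilibrated 16 h before TR-FRET measurement so test compounds could be enzymatically modified.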

PC3 cells = experiment: NAMPT Cell Proliferation Assay; format: cell-based; settings: Homo sapiens, PC-3, 120 h, 5 days incubation, cell viability by Cell Titer Glo
Outline: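 Proliferation of PC3 cells treated 5 days with a 10-fold compound series (top 10 μM) was quantified by Cell Titer Glo luminescence; IC50s were fitted from percent inhibition.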

Sequence of NAMPT (human, recombinant, C-terminally His-tagged) (P43490 whole entry): as above

Structure (SMILES)	IC50 [1] [nM]	IC50 (NAMPT) [nM]	IC50 (PC3 cells) [nM]
O=C(NCc1ccn2ccnc2c1)c1cnc(N(C[C@H]2CCCO2)C(=O)CCc2ccno2)s1 [Example 194, N-(imidazo[1,2-a]pyridin-7-ylmethyl)-2-{[3-(1,2-oxazol-5-yl)propanoyl][(2R)-tetrahydrofuran-2-ylmethyl]amino}-1,3-thiazole-5-carboxamide]	32.3	0.24	0.773
O=C(NCc1ccn2ccnc2c1)c1cnc(N(C[C@H]2CCCO2)C(=O)Cc2cscn2)s1 [Example 196, N-(imidazo[1,2-a]pyridin-7-ylmethyl)-2-{[(2R)-tetrahydrofuran-2-ylmethyl](1,3-thiazol-4-ylacetyl)amino}-1,3-thiazole-5-carboxamide]	358	0.169	6.75
O=C(NCc1ccc2nccn2c1)c1ccc(-c2cnn(CC3CCOCC3)c2)s1 [Example 201, N-(imidazo[1,2-a]pyridin-6-ylmethyl)-5-[1-(tetrahydro-2H-pyran-4-ylmethyl)-1H-pyrazol-4-yl]thiophene-2-carboxamide]	46.6	0.281	1.89
Cn1cc(CC(=O)N(C[C@H]2CCCO2)c2ncc(C(=O)NCc3ccn4ccnc4c3)s2)cn1 [Example 202, N-(imidazo[1,2-a]pyridin-7-ylmethyl)-2-{[(1-methyl-1H-pyrazol-4-yl)acetyl][(2R)-tetrahydrofuran-2-ylmethyl]amino}-1,3-thiazole-5-carboxamide]	216	0.355	4.88
O=C(NCc1ccc2nccn2c1)c1ccc(-c2cnn(CC3CCCOC3)c2)s1 (stereo not drawn) [Example 206, N-(imidazo[1,2-a]pyridin-6-ylmethyl)-5-[1-(tetrahydro-2H-pyran-3-ylmethyl)-1H-pyrazol-4-yl]thiophene-2-carboxamide]	25.7	0.263	1.31
O=C(CC1CCOCC1)Nc1ccc(C(=O)NCc2ccn3ccnc3c2)cc1 [Example 208, N-(imidazo[1,2-a]pyridin-7-ylmethyl)-4-[(tetrahydro-2H-pyran-4-ylacetyl)amino]benzamide]	404	0.169	84.9
O=C(CC1CCCO1)Nc1ccc(C(=O)NCc2ccn3ccnc3c2)cc1 (stereo not drawn) [Example 209, N-(imidazo[1,2-a]pyridin-7-ylmethyl)-4-[(tetrahydrofuran-2-ylacetyl)amino]benzamide]	811	0.988	693
CC(C)OCC(=O)Nc1ccc(C(=O)NCc2ccn3ccnc3c2)cc1 [Example 211, N-(imidazo[1,2-a]pyridin-7-ylmethyl)-4-{[(propan-2-yloxy)acetyl]amino}benzamide]	1660	0.453	950
O=C(CCC1CCCC1)Nc1ccc(C(=O)NCc2ccn3ccnc3c2)cc1 [Example 212, 4-[(3-cyclopentylpropanoyl)amino]-N-(imidazo[1,2-a]pyridin-7-ylmethyl)benzamide]	44.8	0.21	34.1
CC(C)CCC(=O)Nc1ccc(C(=O)NCc2ccn3ccnc3c2)cc1 [Example 213, N-(imidazo[1,2-a]pyridin-7-ylmethyl)-4-[(4-methylpentanoyl)amino]benzamide]	116	0.271	39.7
N#Cc1ccc(CN(C(=O)CC2CCCC2)c2ccc(C(=O)NCc3ccc4nccn4c3)cc2)cc1 [Example 215, 4-[(4-cyanobenzyl)(cyclopentylacetyl)amino]-N-(imidazo[1,2-a]pyridin-6-ylmethyl)benzamide]	2010	3.04	686
CC(C)(C)OC(=O)N1CCC(c2ccc(NC(=O)NCc3ccn4ccnc4c3)cc2)CC1 [Example 216, tert-butyl 4-(4-{[(imidazo[1,2-a]pyridin-7-ylmethyl)carbamoyl]amino}phenyl)piperidine-1-carboxylate]	118	0.19	6.59
CC(C)(C)OC(=O)N1CCC(c2ccc(C(=O)NCc3ccn4ccnc4c3)cc2)CC1 [Example 217, tert-butyl 4-{4-[(imidazo[1,2-a]pyridin-7-ylmethyl)carbamoyl]phenyl}piperidine-1-carboxylate]	220	0.2	3.42
O=C(NCc1ccn2ccnc2c1)c1cnc(N2CC(COCc3ccccc3)OC2=O)s1 (stereo not drawn) [Example 218, 2-{5-[(benzyloxy)methyl]-2-oxo-1,3-oxazolidin-3-yl}-N-(imidazo[1,2-a]pyridin-7-ylmethyl)-1,3-thiazole-5-carboxamide]	123	0.169	71.1
O=C(NCc1ccc2nccn2c1)c1ccc(-c2cnn(CC3CCCO3)c2)s1 (stereo not drawn) [Example 219, N-(imidazo[1,2-a]pyridin-6-ylmethyl)-5-[1-(tetrahydrofuran-2-ylmethyl)-1H-pyrazol-4-yl]thiophene-2-carboxamide]	79.4	0.903	5.59

Now from value to compound:

IC50 [1] [nM]	IC50 (NAMPT) [nM]	IC50 (PC3 cells) [nM]	Structure (SMILES)
516	0.266	19.9	Cc1cc(CC(=O)N(C[C@H]2CCCO2)c2ncc(C(=O)NCc3ccn4ccnc4c3)s2)no1 [Example 193, N-(imidazo[1,2-a]pyridin-7-ylmethyl)-2-{[(5-methyl-1,2-oxazol-3-yl)acetyl][(2R)-tetrahydrofuran-2-ylmethyl]amino}-1,3-thiazole-5-carboxamide]
24.7	0.251	0.966	O=C(NCc1ccn2ccnc2c1)c1cnc(N(C[C@H]2CCCO2)C(=O)CCc2cnoc2)s1 [Example 195, N-(imidazo[1,2-a]pyridin-7-ylmethyl)-2-{[3-(1,2-oxazol-4-yl)propanoyl][(2R)-tetrahydrofuran-2-ylmethyl]amino}-1,3-thiazole-5-carboxamide]
1570	0.505	25.4	Cc1cc(CC(=O)N(C[C@H]2CCCO2)c2ncc(C(=O)NCc3ccn4ccnc4c3)s2)nn1C [Example 197, 2-{[(1,5-dimethyl-1H-pyrazol-3-yl)acetyl][(2R)-tetrahydrofuran-2-ylmethyl]amino}-N-(imidazo[1,2-a]pyridin-7-ylmethyl)-1,3-thiazole-5-carboxamide]
32.5	0.225	1.84	Cn1cc(CCC(=O)N(C[C@H]2CCCO2)c2ncc(C(=O)NCc3ccn4ccnc4c3)s2)cn1 [Example 198, N-(imidazo[1,2-a]pyridin-7-ylmethyl)-2-{[3-(1-methyl-1H-pyrazol-4-yl)propanoyl][(2R)-tetrahydrofuran-2-ylmethyl]amino}-1,3-thiazole-5-carboxamide]
9.76	0.311	0.539	Cc1noc(C)c1CC(=O)N(C[C@H]1CCCO1)c1ncc(C(=O)NCc2ccn3ccnc3c2)s1 [Example 199, 2-{[(3,5-dimethyl-1,2-oxazol-4-yl)acetyl][(2R)-tetrahydrofuran-2-ylmethyl]amino}-N-(imidazo[1,2-a]pyridin-7-ylmethyl)-1,3-thiazole-5-carboxamide]
63	0.482	5.72	O=C(NCc1ccc2nccn2c1)c1ccc(-c2cnn(CC3CCOC3)c2)s1 (stereo not drawn) [Example 200, N-(imidazo[1,2-a]pyridin-6-ylmethyl)-5-[1-(tetrahydrofuran-3-ylmethyl)-1H-pyrazol-4-yl]thiophene-2-carboxamide]
13.7	0.21	2.39	Cn1cccc1CCC(=O)N(C[C@H]1CCCO1)c1ncc(C(=O)NCc2ccn3ccnc3c2)s1 [Example 203, N-(imidazo[1,2-a]pyridin-7-ylmethyl)-2-{[3-(1-methyl-1H-pyrrol-2-yl)propanoyl][(2R)-tetrahydrofuran-2-ylmethyl]amino}-1,3-thiazole-5-carboxamide]
4830	0.773	1620	CC(C)(O)Cn1cc(-c2ncc(C(=O)NCc3ccn4ccnc4c3)s2)cn1 [Example 204, 2-[1-(2-hydroxy-2-methylpropyl)-1H-pyrazol-4-yl]-N-(imidazo[1,2-a]pyridin-7-ylmethyl)-1,3-thiazole-5-carboxamide]
1060	0.358	483	CC(C)Cn1cc(-c2ncc(C(=O)NCc3ccn4ccnc4c3)s2)cn1 [Example 205, N-(imidazo[1,2-a]pyridin-7-ylmethyl)-2-[1-(2-methylpropyl)-1H-pyrazol-4-yl]-1,3-thiazole-5-carboxamide]
1510	0.282	739	CC(C)(C)OC(=O)Nc1ccc(C(=O)NCc2ccn3ccnc3c2)cc1 [Example 207, tert-butyl {4-[(imidazo[1,2-a]pyridin-7-ylmethyl)carbamoyl]phenyl}carbamate]
469	0.363	398	O=C(CCC1CCCO1)Nc1ccc(C(=O)NCc2ccn3ccnc3c2)cc1 (stereo not drawn) [Example 210, N-(imidazo[1,2-a]pyridin-7-ylmethyl)-4-{[3-(tetrahydrofuran-2-yl)propanoyl]amino}benzamide]
641	1.28	289	O=C(CC1CCOC1)Nc1ccc(C(=O)NCc2ccn3ccnc3c2)cc1 (stereo not drawn) [Example 214, N-(imidazo[1,2-a]pyridin-7-ylmethyl)-4-[(tetrahydrofuran-3-ylacetyl)amino]benzamide]
